Some test systems named below: NCI/ADR-RES ovarian; SK-MEL-28 melanoma; NCI-H226 lung; BT-549 breast; UO-31 renal; HCT-116 colon; CAKI-1 renal; EKVX NSCLC.
Experiment in all cases: DTP human tumour cell line panel, 48 h

From PubChem BioAssay (NCI) come the findings set out here.

The GI50 is the concentration at which growth is held to half of that of the control. The term TGI denotes the concentration giving total growth inhibition.

Structures are written as SMILES. Where “and” joins values, the source holds several entries; their conditions need not be identical. Equal entries are not always repeated.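 Where inhibition never reached the appropriate level, the endpoint shown equals the highest concentration tested. Otherwise, values were interpolated linearly from a five-concentration, 48-hour dose response in 96-well plates. Here, GI50 denotes the concentration required for 50% inhibition of growth. At the TGI there is no net growth.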

As to `Cn1cc(-c2cc3c(Nc4ccc(CC(=O)Nc5cc(C(C)(C)C)on5)cc4)ncnc3[nH]2)cn1`, the GI50 with NCI/ADR-RES ovarian is 16.1 µM and 13.1 µM; with SK-MEL-28 melanoma, 0.804 µM and 0.508 µM; with NCI-H226 lung, 0.899 µM and 0.54 µM; with BT-549 breast, 0.925 µM and 0.538 µM; in the experiment on UO-31 renal it was 2.43 µM and 2.33 µM; in the experiment on HCT-116 colon, 0.68 µM and 0.337 µM. The GI50 with CAKI-1 renal was 1.25 µM and 1.1 µM; with EKVX NSCLC, 1.66 µM and 1.81 µM. Further, the TGI in the experiment on NCI/ADR-RES ovarian is > 100 µM; with SK-MEL-28 melanoma, 3.58 µM and 3 µM; with NCI-H226 lung it was 4.18 µM and 4.1 µM; with BT-549 breast, 4.12 µM and 3.35 µM; in the experiment with UO-31 renal, 7.04 µM and 6.58 µM; in the experiment on HCT-116 colon, 4.86 µM and 1.99 µM. Further, the TGI in the experiment with CAKI-1 renal is 7.09 µM and 6.93 µM; with EKVX NSCLC it was 5.01 µM and 5.31 µM.

Take `O=S(=O)(c1cccc(C(F)(F)F)c1)N1c2ccccc2-n2cccc2C1c1cccnc1` (stereo unspecified): the TGI in the experiment on NCI/ADR-RES ovarian is 66.2 µM; with SK-MEL-28 melanoma it was > 59 µM; with NCI-H226 lung, > 53 µM; with BT-549 breast, > 71.8 µM; with UO-31 renal, 34.3 µM; in the experiment on HCT-116 colon, > 52 µM. Further, the TGI in the experiment with CAKI-1 renal and with EKVX NSCLC was > 100 µM each time.

For the compound `CN(C)c1c(Cl)c(=O)oc2c1ccc1nc(-c3ccccc3)sc12`, the concentration for total growth inhibition (TGI) in the experiment with NCI/ADR-RES ovarian, in the experiment with SK-MEL-28 melanoma, in the experiment on NCI-H226 lung, in the experiment on BT-549 breast, in the experiment on UO-31 renal and in the experiment on HCT-116 colon was > 100 µM each time. Moreover, the TGI in the experiment with CAKI-1 renal and with EKVX NSCLC was > 100 µM each time.

For the compound `C=C1C(=O)O[C@H]2[C@H]1CC/C(COC(=O)OCCCCCOC(=O)OC/C1=C/CC[C@@]3(C)O[C@H]3[C@H]3OC(=O)C(=C)[C@@H]3CC1)=C\CC[C@@]1(C)O[C@@H]21`, the GI50 in the experiment with NCI/ADR-RES ovarian was 2.34 µM; in the experiment with SK-MEL-28 melanoma, 0.252 µM; in the experiment with NCI-H226 lung, 1.64 µM; in the experiment on BT-549 breast it was 0.182 µM; in the experiment on UO-31 renal, 0.674 µM; with HCT-116 colon it was 0.174 µM. The GI50 was 0.308 µM in the experiment on CAKI-1 renal and 1.12 µM in the experiment on EKVX NSCLC. In addition, the TGI in the experiment on NCI/ADR-RES ovarian came to 9.58 µM; with SK-MEL-28 melanoma, 0.842 µM; with NCI-H226 lung, 3.42 µM; in the experiment with BT-549 breast, 0.437 µM; in the experiment with UO-31 renal, 2.05 µM; in the experiment on HCT-116 colon it was 0.5 µM. The TGI in the experiment on CAKI-1 renal was 1.02 µM; in the experiment with EKVX NSCLC, 3.32 µM.

Take `Nc1ccccc1C#C/C=C\C#Cc1ccc(F)cc1F`: the GI50 with NCI/ADR-RES ovarian was 6.22 µM; with SK-MEL-28 melanoma, 27 µM; with NCI-H226 lung, 17.3 µM; with BT-549 breast it was 12.1 µM; with UO-31 renal, 13.1 µM; with HCT-116 colon it was 15.4 µM. For the same compound, the GI50 in the experiment with CAKI-1 renal was 3.13 µM; with EKVX NSCLC it was 19.4 µM. Besides, the TGI in the experiment with NCI/ADR-RES ovarian was determined as 21.1 µM; in the experiment on SK-MEL-28 melanoma it was 90.1 µM; with NCI-H226 lung it was 35.8 µM; with BT-549 breast, 27.5 µM; in the experiment on UO-31 renal it was 33 µM; in the experiment on HCT-116 colon, 31.4 µM. The values for the TGI with CAKI-1 renal and in the experiment with EKVX NSCLC were 14.7 µM and 57.8 µM, respectively.

`O=C(c1ccccc1)c1ccc(-c2ccc(O)cc2)cc1`: the GI50 is 5.18 µM with NCI/ADR-RES ovarian; 10.4 µM in the experiment with SK-MEL-28 melanoma; 16.8 µM in the experiment with NCI-H226 lung; 4.04 µM in the experiment with BT-549 breast; 4.04 µM with UO-31 renal; 8.42 µM in the experiment with HCT-116 colon. Moreover, the figures for the GI50 in the experiment with CAKI-1 renal and in the experiment with EKVX NSCLC were 2.35 µM and 4.42 µM, respectively. The TGI was 54.9 µM with NCI/ADR-RES ovarian; > 61.7 µM with SK-MEL-28 melanoma; > 73.7 µM with NCI-H226 lung; 31.3 µM in the experiment on BT-549 breast; 50.3 µM with UO-31 renal; 44.7 µM with HCT-116 colon. Also, the concentration for total growth inhibition (TGI) was determined as 9.84 µM in the experiment with CAKI-1 renal and 41.5 µM in the experiment on EKVX NSCLC.

Consider `Cn1ncc2c(Nc3ccc(Br)cc3)nc(Nc3ccc(Br)cc3)nc21`, for which the GI50 was 3.64 µM with NCI/ADR-RES ovarian; 5.09 µM in the experiment on SK-MEL-28 melanoma; 2.62 µM with NCI-H226 lung; 4.68 µM in the experiment on BT-549 breast; 3.28 µM with UO-31 renal; 3.22 µM in the experiment with HCT-116 colon. The GI50 in the experiment on CAKI-1 renal is 1.87 µM; with EKVX NSCLC, 2.48 µM. The TGI in the experiment on NCI/ADR-RES ovarian was 16.1 µM; in the experiment with SK-MEL-28 melanoma it was 17 µM; with NCI-H226 lung it was 13.4 µM; with BT-549 breast it was 19.4 µM; in the experiment on UO-31 renal it was 29 µM; in the experiment with HCT-116 colon it was 11.9 µM. Also, the TGI with CAKI-1 renal was determined as 4.49 µM; in the experiment with EKVX NSCLC, 9.73 µM.

For `CN(C(=O)c1ccc(F)cc1C(F)(F)F)C1CCN(c2nnc(-c3ccnn3C)c3ccccc23)CC1`, the GI50 with NCI/ADR-RES ovarian was 30.9 µM; in the experiment with SK-MEL-28 melanoma, > 65.6 µM; in the experiment on NCI-H226 lung, 28.2 µM; with BT-549 breast, 33.3 µM; with UO-31 renal, 22 µM; in the experiment on HCT-116 colon it was 40.8 µM. Further, the GI50 in the experiment with CAKI-1 renal is 31.9 µM; in the experiment on EKVX NSCLC it was 19.4 µM. For the same compound, the TGI in the experiment with NCI/ADR-RES ovarian, in the experiment on SK-MEL-28 melanoma, with NCI-H226 lung, in the experiment with BT-549 breast, in the experiment with UO-31 renal and in the experiment on HCT-116 colon was > 100 µM each time. Moreover, the TGI with CAKI-1 renal and in the experiment with EKVX NSCLC was > 100 µM in each case.

As to `CC1(C)CCC(S(=O)(=O)c2ccc3c(c2)/C(=N\O)c2cc(S(=O)(=O)N4CCC(O)(c5cccc(C(F)(F)F)c5)CC4)ccc2-3)CC1`, the GI50 in the experiment on NCI/ADR-RES ovarian was 3.14 µM; in the experiment with SK-MEL-28 melanoma, 0.0505 µM; in the experiment with NCI-H226 lung, 0.0292 µM; in the experiment on BT-549 breast it was 0.054 µM; in the experiment on UO-31 renal, 1.67 µM; with HCT-116 colon, 0.0163 µM. Also, the results for the GI50 with CAKI-1 renal and in the experiment with EKVX NSCLC were 0.0752 µM and 0.0329 µM, respectively. The TGI came out at 0.446 µM in the experiment on SK-MEL-28 melanoma; 0.0988 µM with NCI-H226 lung; 0.226 µM in the experiment with BT-549 breast; 5.49 µM in the experiment on UO-31 renal; 0.0327 µM in the experiment with HCT-116 colon; 1.14 µM in the experiment on CAKI-1 renal. This compound also showed a TGI in the experiment with EKVX NSCLC of 0.408 µM.

Consider `CCN(CC)c1ccc(NC(C(=O)c2ccccc2)c2ccccc2)cc1` (stereo unspecified), for which the GI50 is 2.54 µM in the experiment on NCI/ADR-RES ovarian; 1.81 µM in the experiment on SK-MEL-28 melanoma; 1.76 µM in the experiment with NCI-H226 lung; 2.85 µM in the experiment on BT-549 breast; 1.9 µM in the experiment with UO-31 renal; 2.58 µM in the experiment on HCT-116 colon. For the same compound, the GI50 in the experiment with CAKI-1 renal is 3.36 µM; in the experiment on EKVX NSCLC, 3.59 µM. For the same compound, the TGI in the experiment with NCI/ADR-RES ovarian is 6.21 µM; in the experiment on SK-MEL-28 melanoma, 3.6 µM; with NCI-H226 lung, 3.53 µM; in the experiment on BT-549 breast, 9.59 µM; in the experiment with UO-31 renal, 4.18 µM; with HCT-116 colon, 6.6 µM. Besides, the values for the TGI with CAKI-1 renal and with EKVX NSCLC were 11.6 µM and 14.4 µM, respectively.

In the case of `CCCC[C@@H]1NC(=O)[C@H](CCCCN)NC(=O)[C@H](CCCNC(=N)N)NC(=O)[C@H](CC(C)C)NC(=O)[C@@H](NC(=O)[C@H](Cc2cccc(Cl)c2)NC(=O)[C@@H]2CCCN2C(=O)[C@@H](NC(C)=O)C(C)C)CCSSC[C@@H](C(=O)N[C@@H](CCCCN)C(=O)N2CCC[C@H]2C(=O)N2CCC[C@H]2C(=O)N[C@@H](CCC(=O)O)C(N)=O)NC(=O)[C@H](Cc2ccccc2)NC(=O)[C@H](CO)NC(=O)[C@H](C)NC(=O)[C@@H]2CCCN2C1=O`, the GI50 in the experiment with NCI/ADR-RES ovarian, with SK-MEL-28 melanoma, in the experiment with NCI-H226 lung, in the experiment with BT-549 breast, in the experiment on UO-31 renal and in the experiment with HCT-116 colon was > 50 µM in each case. Further, the GI50 with CAKI-1 renal and with EKVX NSCLC was > 50 µM throughout. Also, the TGI in the experiment with NCI/ADR-RES ovarian, in the experiment with SK-MEL-28 melanoma, with NCI-H226 lung, in the experiment on BT-549 breast, in the experiment with UO-31 renal and with HCT-116 colon was > 50 µM in each case. For the same compound, the TGI in the experiment with CAKI-1 renal and in the experiment with EKVX NSCLC was > 50 µM throughout.

`Cc1ccc(NS(=O)(=O)c2ccc(-c3cnc(C4CC4)o3)cc2)cc1`: the GI50 in the experiment with NCI/ADR-RES ovarian is 1.61 µM; with SK-MEL-28 melanoma, 6.22 µM; with NCI-H226 lung, 7.37 µM; in the experiment with BT-549 breast, 5.14 µM; in the experiment on UO-31 renal, 3.49 µM; with HCT-116 colon it was 2.49 µM. Moreover, the GI50 in the experiment with CAKI-1 renal was 2.77 µM; with EKVX NSCLC, 4.24 µM. The TGI in the experiment with NCI/ADR-RES ovarian was determined as 7.79 µM; in the experiment with SK-MEL-28 melanoma it was 20.1 µM; in the experiment on NCI-H226 lung, 24.5 µM; in the experiment on BT-549 breast, 19.7 µM; with UO-31 renal it was 16.1 µM; with HCT-116 colon, 15.2 µM. The TGI turned out to be 15.4 µM in the experiment with CAKI-1 renal and 19.9 µM with EKVX NSCLC.

As to `OCC1SC(n2cnc3cncnc32)C(O)C1O` (stereo unspecified), the GI50 with NCI/ADR-RES ovarian, in the experiment with SK-MEL-28 melanoma, in the experiment with NCI-H226 lung, with BT-549 breast, in the experiment on UO-31 renal and with HCT-116 colon was > 100 µM in each case. For the same compound, the GI50 with CAKI-1 renal and in the experiment on EKVX NSCLC was > 100 µM each time. Moreover, the TGI in the experiment on NCI/ADR-RES ovarian, in the experiment on SK-MEL-28 melanoma, with NCI-H226 lung, in the experiment with BT-549 breast, in the experiment on UO-31 renal and with HCT-116 colon was > 100 µM throughout. In addition, the TGI in the experiment on CAKI-1 renal and with EKVX NSCLC was > 100 µM in each case.
